SMILES strings stand for the structures. Where two headings read alike, the source gives them in different places.

The subject of assay [1] is S. aureus ATCC 29213. Kind of assay: Broth microdilution MIC assay. Particulars: Staphylococcus aureus. In kind it is cell-based. On the procedure:
(§1) To determine the ability of test compounds to potentiate the inhibition of the growth of bacterial strains, classic cell based broth microdilution MIC assays were employed. MIC assays are performed according to CLSI methods except where otherwise noted (CLSI, 2011 and CLSI, 2009). The reference strain S. aureus ATCC 29213 and the hyper-permeable E. coli 901C were used to determine the ability of the PBP compounds to inhibit bacterial growth. Briefly, cryo-preserved bacterial cultures of clinical strains are streaked for isolation on appropriate agar medium, in this case Mueller Hinton II agar. Following incubation to allow formation of colonies these plates are sealed with parafilm and stored refrigerated for up to two weeks. For preparation of assay inocula and to ensure low variability, at least 5 colonies are picked from the agar plates with an inoculating loop and aseptically transferred to a culture tube containing 3 mL of Mueller-Hinton Broth (supplemented with divalent cations to required levels based on Manufacturers' certification). The broth culture is grown for 3-5 hours at 37° C. with shaking at 200 rpm. Meanwhile, 2-fold serial dilutions of test compounds are conducted in a 96 well plate with a final volume of 75 μL per well at 2-fold the final desired concentration. After the dilution plates are set up the growing cultures are then diluted in a cuvette containing MH II broth and the optical density is measured at 600 nm. Inocula are diluted such that 75 μL of this culture in Mueller-Hinton Broth results in a starting bacterial concentration of 5×10^5 CFU/mL when added to the dilution plates. The plates are incubated 16-20 hours at 37° C. The MIC is read visually as the lowest concentration well with no bacterial growth.

For assay [2], the system named is hyper-permeable E. coli 901C. Kind of assay: Broth microdilution MIC assay. It is filed as cell-based. To be noted: Escherichia coli, read-out: E. coli 901C MIC. As for the experimental part: as §1
On the technique in general: Dilution methods test growth across graded concentrations, often in twofold steps.

Assay [3] has as its system E. coli DH5α/pLBII-CTX-M15. Kind of assay: Broth microdilution MIC assay, engineered strain producing CTX-M15. Particulars: Escherichia coli, read-out: E. coli DH5α/pLBII-CTX-M15 Microbiological Activity (MIC). In kind it is cell-based, Escherichia coli. As for the experimental part:
as §1
(§2) To determine if test compounds were affected by CTX-M15, the most abundant extended spectrum β-lactamase in clinical settings worldwide, the inhibition of the growth of an engineered strain of Escherichia coli harboring CTX-M15 was tested. This strain was constructed by cloning the gene encoding CTX-M15 into the NdeI and BamHI restriction endonuclease sites of plasmid pLBII, placing the gene(s) under the control of the Lac promoter. The constructed expression plasmid for CTX-M15 was used to transform competent E. coli DH5a cells to make the engineered strain, including an empty pLBII vector control strain. The classic cell based broth microdilution MIC assay was employed as described above with the addition of control antibiotics, known to be degraded by β-lactamases (Ceftazidime, piperacillin and piperacillin+tazobactam).

Assay [4] deals with E. coli DH5α/pLBII. Kind of assay: Broth microdilution MIC assay, empty vector control strain. Particulars: Escherichia coli, read-out: E. coli DH5α/pLBII Microbiological Activity (MIC). In kind it is cell-based. On the procedure:
as §1, §2

Where [5] appears, read: ATCC29213, broth microdilution, 16-20 hours at 37° C., read-out: S. aureus 29213 MIC.

Regarding `Nc1nc([C@@H](N)C(=O)N[C@H]2Cc3cccc(C(=O)O)c3OB2O)cs1` [Example 8, (R)-3-((R)-2-amino-2-(2-aminothiazol-4-yl)acetamido)-2-hydroxy-3,4-dihydro-2H-benzo[e][1,2]oxaborinine-8-carboxylic acid], the MIC in assay [1] (setting [5]) is over 128 mg/L; in assay [2], over 128 mg/L; in assay [3], over 512 mg/L; in assay [4], over 512 mg/L.
On to `Nc1nc([C@H](N)C(=O)N[C@H]2Cc3cccc(C(=O)O)c3OB2O)cs1` [Example 9, (R)-3-((S)-2-amino-2-(2-aminothiazol-4-yl)acetamido)-2-hydroxy-3,4-dihydro-2H-benzo[e][1,2]oxaborinine-8-carboxylic acid], for which the MIC in assay [1] (setting [5]) is over 128 mg/L; in assay [2] it was over 128 mg/L; in assay [3] it was 128 to 256 mg/L; in assay [4], 128 to 256 mg/L.
As for `Cc1cc(C)n2c1C=C1C=CC(CCC(=O)NCCON=C(C(=O)N[C@H]3Cc4cccc(C(=O)O)c4OB3O)c3csc(N)n3)=[N+]1[B-]2(F)F` [Example 13, (R)-3-(2-(2-aminothiazol-4-yl)-2-((2-(3-(5,5-difluoro-7,9-dimethyl-5H-4λ^4,5λ^4-dipyrrolo[1,2-c:2′,1′-f][1,3,2]diazaborinin-3-yl)propanamido)ethoxy)imino)acetamido)-2-hydroxy-3,4-dihydro-2H-benzo[e][1,2]oxaborinine-8-carboxylic acid], the MIC in assay [1] (ATCC29213, read-out: S. aureus 29213 MIC) was over 128 mg/L; in assay [2], over 128 mg/L; in assay [3], over 512 mg/L; in assay [4], over 512 mg/L.
On to `CN(C)C(=O)NC(C(=O)N[C@H]1Cc2cccc(C(=O)O)c2OB1O)c1csc(N)n1` (stereo partly drawn) [Example 14, (3R)-3-(2-(2-aminothiazol-4-yl)-2-(3,3-dimethylureido)acetamido)-2-hydroxy-3,4-dihydro-2H-benzo[e][1,2]oxaborinine-8-carboxylic acid], for which the MIC was over 128 mg/L in assay [1] (setting [5]), under 64 mg/L in assay [2], 128 to 256 mg/L in assay [3] and 128 to 256 mg/L in assay [4].
As to `Nc1nc(C(NC(=O)c2nccs2)C(=O)N[C@H]2Cc3cccc(C(=O)O)c3OB2O)cs1` (stereo partly drawn) [Example 15, (3R)-3-(2-(2-aminothiazol-4-yl)-2-(thiazole-2-carboxamido)acetamido)-2-hydroxy-3,4-dihydro-2H-benzo[e][1,2]oxaborinine-8-carboxylic acid], the MIC in assay [1] (setting [5]) is under 64 mg/L; in assay [2], under 64 mg/L; in assay [3], 128 to 256 mg/L; in assay [4], 128 to 256 mg/L.
Take `Nc1nc(C(NC(=O)c2cscn2)C(=O)N[C@H]2Cc3cccc(C(=O)O)c3OB2O)cs1` (stereo partly drawn) [Example 16, (3R)-3-(2-(2-aminothiazol-4-yl)-2-(thiazole-4-carboxamido)acetamido)-2-hydroxy-3,4-dihydro-2H-benzo[e][1,2]oxaborinine-8-carboxylic acid]: the MIC in assay [1] (setting [5]) was 64 to 128 mg/L; in assay [2] it was under 64 mg/L; in assay [3] it was 128 to 256 mg/L; in assay [4], 128 to 256 mg/L.
As for `Nc1nc(C(NC(=O)N2CCOCC2)C(=O)N[C@H]2Cc3cccc(C(=O)O)c3OB2O)cs1` (stereo partly drawn) [Example 18, (3R)-3-(2-(2-aminothiazol-4-yl)-2-(morpholine-4-carboxamido)acetamido)-2-hydroxy-3,4-dihydro-2H-benzo[e][1,2]oxaborinine-8-carboxylic acid], the MIC in assay [1] (setting [5]) is over 128 mg/L; in assay [2] it was under 64 mg/L; in assay [3], 128 to 256 mg/L; in assay [4], 128 to 256 mg/L.
For `Nc1nc(C(NC(=O)Cc2ncccn2)C(=O)N[C@H]2Cc3cccc(C(=O)O)c3OB2O)cs1` (stereo partly drawn) [Example 21, (3R)-3-(2-(2-aminothiazol-4-yl)-2-(2-(pyrimidin-2-yl)acetamido)acetamido)-2-hydroxy-3,4-dihydro-2H-benzo[e][1,2]oxaborinine-8-carboxylic acid], the MIC in assay [1] (setting [5]) was 64 to 128 mg/L; in assay [2], 64 to 128 mg/L; in assay [3], over 512 mg/L; in assay [4] it was over 512 mg/L.
Take `Nc1nc(CC(=O)NC(C(=O)N[C@H]2Cc3cccc(C(=O)O)c3OB2O)c2csc(N)n2)cs1` (stereo partly drawn) [Example 22, (3R)-3-(2-(2-aminothiazol-4-yl)-2-(2-(2-aminothiazol-4-yl)acetamido)acetamido)-2-hydroxy-3,4-dihydro-2H-benzo[e][1,2]oxaborinine-8-carboxylic acid]: the MIC in assay [1] (setting [5]) was 64 to 128 mg/L; in assay [2], under 64 mg/L; in assay [3], 128 to 256 mg/L; in assay [4] it was 128 to 256 mg/L.
Regarding `CN(C)S(=O)(=O)NC(C(=O)N[C@H]1Cc2cccc(C(=O)O)c2OB1O)c1csc(N)n1` (stereo partly drawn) [Example 23, (3R)-3-(2-(2-aminothiazol-4-yl)-2-((N,N-dimethylsulfamoyl)amino)acetamido)-2-hydroxy-3,4-dihydro-2H-benzo[e][1,2]oxaborinine-8-carboxylic acid], the MIC in assay [1] (setting [5]) is over 128 mg/L; in assay [2] it was under 64 mg/L; in assay [3], 128 to 256 mg/L; in assay [4] it was 128 to 256 mg/L.
For the compound `Nc1nc(C(NS(=O)(=O)N2CCOCC2)C(=O)N[C@H]2Cc3cccc(C(=O)O)c3OB2O)cs1` (stereo partly drawn) [Example 24, (3R)-3-(2-(2-aminothiazol-4-yl)-2-(morpholine-4-sulfonamido)acetamido)-2-hydroxy-3,4-dihydro-2H-benzo[e][1,2]oxaborinine-8-carboxylic acid], the MIC was over 128 mg/L in assay [1] (setting [5]), under 64 mg/L in assay [2], 128 to 256 mg/L in assay [3] and 128 to 256 mg/L in assay [4].
With `CCNC(=O)NC(C(=O)N[C@H]1Cc2cccc(C(=O)O)c2OB1O)c1csc(N)n1` (stereo partly drawn) [Example 25, (3R)-3-(2-(2-aminothiazol-4-yl)-2-(3-ethylureido)acetamido)-2-hydroxy-3,4-dihydro-2H-benzo[e][1,2]oxaborinine-8-carboxylic acid], the MIC is over 128 mg/L in assay [1] (setting [5]), under 64 mg/L in assay [2], 32 to 64 mg/L in assay [3] and 32 to 64 mg/L in assay [4].
Take `Nc1nc(C(NS(=O)(=O)c2cccnc2)C(=O)N[C@H]2Cc3cccc(C(=O)O)c3OB2O)cs1` (stereo partly drawn) [Example 27, (3R)-3-(2-(2-aminothiazol-4-yl)-2-(pyridine-3-sulfonamido)acetamido)-2-hydroxy-3,4-dihydro-2H-benzo[e][1,2]oxaborinine-8-carboxylic acid]: the MIC in assay [1] (setting [5]) was over 128 mg/L; in assay [2] it was under 64 mg/L; in assay [3] it was 128 to 256 mg/L; in assay [4] it was 128 to 256 mg/L.
Turning to `COC(=O)C(=O)NC(C(=O)N[C@H]1Cc2cccc(C(=O)O)c2OB1O)c1csc(N)n1` (stereo partly drawn) [Example 28, (3R)-3-(2-(2-aminothiazol-4-yl)-2-(2-methoxy-2-oxoacetamido)acetamido)-2-hydroxy-3,4-dihydro-2H-benzo[e][1,2]oxaborinine-8-carboxylic acid], the MIC in assay [1] (setting [5]) was over 128 mg/L; in assay [2] it was under 64 mg/L; in assay [3] it was 32 to 64 mg/L; in assay [4] it was 32 to 64 mg/L.
On to `Nc1nc(C(NC(=O)CO)C(=O)N[C@H]2Cc3cccc(C(=O)O)c3OB2O)cs1` (stereo partly drawn) [Example 29, (3R)-3-(2-(2-aminothiazol-4-yl)-2-(2-hydroxyacetamido)acetamido)-2-hydroxy-3,4-dihydro-2H-benzo[e][1,2]oxaborinine-8-carboxylic acid], for which the MIC in assay [1] (setting [5]) was over 128 mg/L; in assay [2], under 64 mg/L; in assay [3], 32 to 64 mg/L; in assay [4] it was 32 to 64 mg/L.
`Nc1nc(C(NC(=O)Nc2cccnc2)C(=O)N[C@H]2Cc3cccc(C(=O)O)c3OB2O)cs1` (stereo partly drawn) [Example 30, (3R)-3-(2-(2-aminothiazol-4-yl)-2-(3-(pyridin-3-yl)ureido)acetamido)-2-hydroxy-3,4-dihydro-2H-benzo[e][1,2]oxaborinine-8-carboxylic acid]: the MIC in assay [1] (setting [5]) was 64 to 128 mg/L; in assay [2], 64 to 128 mg/L; in assay [3], 128 to 256 mg/L; in assay [4], 128 to 256 mg/L.
As for `CCN1CCN(C(=O)N[C@@H](C)C(=O)N[C@H]2Cc3cccc(C(=O)O)c3OB2O)C(=O)C1=O` [Example 31, (R)-3-((S)-2-(4-Ethyl-2,3-dioxopiperazine-1-carboxamido)propanamido)-2-hydroxy-3,4-dihydro-2H-benzo[e][1,2]oxaborinine-8-carboxylic acid], the MIC in assay [1] (setting [5]) is over 128 mg/L; in assay [2], over 128 mg/L; in assay [3], over 512 mg/L; in assay [4], over 512 mg/L.

Source of the values: patent US11332485B2, “Penicillin-binding protein inhibitors” (priority 2017, dated 2022).
